Reference: patent publication US20240270758A1, “PYRIDINO-OR PYRIMIDO-CYCLIC COMPOUND, PREPARATION METHOD THEREFOR AND MEDICAL USE THEREOF” (Genfleet Therapeutics (Shanghai) Inc., priority 2021, published 2024)
pIC50: −log10 of the molar value.

Columns and labels:
[1] = tested on: AGS cells (KRAS^G12D mutation); test: Cell proliferation inhibition assay (3D, CellTiter-Glo), AGS; assay type: cell-based, human; settings: 3D cell model, 5 days
Source text: (§1) AsPC-1 was purchased from ATCC; Cat. NO.: CRL-1682; AGS was purchased from ATCC; Cat. NO.: CRL-1739; RPMI1640 was purchased from Gibco; Cat. NO.: 11875-093 2235123; F12K was purchased from Gibco; Cat. NO.: 21127-022; FBS was purchased from Gibco; Cat. NO.: 10099-141C; Trypsin (containing EDTA) was purchased from Gibco; Cat. NO.: 25200-072; CellTiter Glo-3D was purchased from Progema; Cat. NO.: G9683; 384-well sphere plates were purchased from coming; Cat. NO.: 3830; White background opaque 384-well plates were purchased from coming; Cat. NO.: 3570; Cell Counters were purchased from CHEMOMETEC; Model NO.: NC-200; microplate reader was purchased from PerkinElmer; Model NO.: Envison;
(§2) AsPC-1 is an endogenous human pancreatic cancer cell containing KRAS^G12D mutation, which is cultured in RPMI-1640 medium containing 10% FBS; AGS human gastric cancer cell line containing KRAS^G12D mutation, cultured in F-12K medium containing 10% FBS. Cells in the logarithmic growth phase were taken, digested with trypsin (containing EDTA), harvested and counted, and inoculated with 800 AsPC-1 cells/well or 400 AGS cells/well, respectively, in 384-well sphere plates and cultured overnight at 5% C02 to establish a 3D cell model. A 3.16-fold gradient concentration stock solution of 1000× compound was prepared using DMSO, diluted 100-fold into a 10× compound stock solution using media, and a 10× compound stock solution was added to each cell culture well the day after cell inoculating at a final concentration of 1× with a DMSO content of 0.1%. DMSO was used as an experimental control (control) and culture medium as a blank control (blank). After the addition of compounds, the cells were cultured for 5 days. […] CellTiter-Glo working solution was added to each well, mixed well, and incubated for 30 min. After standing for 30 min at room temperature, 40 μl of the mixed solution was transferred to a white background opaque 384-well plate. Luminescence chemiluminescence value was read on a microplate reader, and the cell proliferation inhibition ratio was calculated, IR (%)=(RLU control-RLU compound)/(RLU control-RLU blank)×100%. XLFit four-parameter method was used to fit the gradient dilution concentration of compounds and the corresponding cell proliferation inhibition ratio, and the IC50 value was calculated. […] Results for exemplary of the example compounds are shown in Table 3 below. - indicates not detected.

[2] = target: KRAS^G12D mutant protein binding to RBD region fragment of RAF1 protein (Homo sapiens (Human), UniProt P01116, G12D); test: KRAS-RAF1 binding assay (HTRF), KRAS G12D; settings: His-KRAS^G12D, GST-RAF1-RBD, GTP
Method: (§3) GST-RAF1-RBD was purchased from BPS Bioscience; Cat. NO.: 100519; KRAS^G12D was purchased from BPS Bioscience; Cat. NO.: 100623; KRAS^wt was purchased from Reactionbiology; GTP was purchased from Sigma; Cat. NO.: G8877; Mab Anti GST-XL665 was purchased from cisbio; Cat. NO.: 61GSTXLF; Eu-W1024-anti-6×HIS was purchased from PE; Cat. NO.: AD0111; ProxiPlate-384-Plates was purchased from PerkinElmer; Cat. NO.: 6008289; DMSO was purchased from VWR AMRESCO; Cat. NO.: 0231-500ML; microplate reader was purchased from PerkinElmer; Cat. NO.: Envison;
(§4) This experiment is intended to investigate the inhibitory effect of compounds on the binding of KRAS^G12D mutant protein or KRAS^Wt (wild type) protein to fragments of the RBD region fragment of RAF1 protein. A 500×3-fold gradient concentration stock of compound was prepared using DMSO and diluted 50-fold into a 10× stock of compound using reaction buffer. To the reaction wells of an ELISA plate (ProxiPlate-384-Plates), was first added 3 µL of His-KRAS^G12D protein or KRAS^wt protein, then added 1 μL of 200 µM GTP and incubated for 30 min, then added 2 μL of 10× compound or reaction buffer with 2% DMSO (positive control) and incubated for 30 min, then added 4 μL of GST-RAF1-RBD protein or reaction buffer (negative control) and incubated for 15 min, then added […] anti-His antibody and XL665-labeled anti-GST antibody mixed well in advance and incubated for 60 min before reading HTRF signal by microplate reader. The inhibition ratio of compounds on KRAS protein (G12D mutant or wild type) and RAF1 binding was calculated IR (%)=(positive control signal-compound well signal)/(positive control signal-negative control signal)×100% and IC50 values were calculated by fitting compound concentrations and corresponding inhibition ratios using the Prism 8 four-parameter method. […] While the inhibition IC50 values of the compounds on the binding of KRAS^wt (wild type) protein to the RBD region fragment of RAF1 protein was more than 40 nM or 100 nM, or more than 500 nM, or even more than 1 μM or 2 μM.

[3] = tested on: p-ERK in AGS cells (KRAS^G12D mutation); test: Cell p-ERK detection assay; assay type: cell-based, human; settings: 3 h incubation, HTRF
Method: AGS was purchased from ATCC; Cat. NO.: CRL-1739; F12K was purchased from Gibco; Cat. NO.: 21127-022; FBS was purchased from Gibco; Cat. NO.: 10099-141C; Trypsin (containing EDTA) was purchased from Gibco; Cat. NO.: 25200-072; DMSO was purchased from VWRAMRESCO; Cat. NO.: 0231-500ML; 96-well cell culture plate was purchased from Corning; Cat. NO.: 3599; An white background opaque 96-well plate was purchased from Cisbio; Cat. NO.: 66PL96025; Advance ERK phospho-T202/Y204 kit was purchased from Cisbio; Cat. NO.: 64AERPEH; Cell Counters were purchased from CHEMOMETEC; Model NO.: NC-200; microplate reader was purchased from PerkinElmer; Model NO.: Envison.
AGS is an endogenous human gastric adenocarcinoma cell line containing KRAS^G12D mutation, cultured in F12K+10% FBS medium. On the first day of the experiment, cells in the logarithmic growth phase were taken, digested with trypsin (containing EDTA), collected, and counted, and approximately 20,000 cells/well were inoculated in 96-well cell culture plates and cultured overnight in a 5% CO2 incubator. A 1000×3.16-fold gradient concentration stock of the compound was prepared using DMSO, diluted 200-fold into a 5× compound stock using the medium described above, and a 5× compound stock was added to each cell culture well the day after cell inoculating at a final concentration of 1× and a DMSO content of 0.1%. DMSO was used as an experimental control. After the compound was added and the incubation was continued for 3 h, the medium in the culture wells was removed, […] of cell lysis solution (from Advance ERK phospho-T202/Y204 kit, the same below) was added to each well, mixed well and incubated for 30 min, then […] of the mixed solution was transferred to a white background opaque 96-well plate, and another well was taken as a blank well with adding […] of cell lysis solution. After the transfer, […] of p-ERK HTRF antibody mixed solution (from Advance ERK phospho-T202/Y204 kit) was added to each well, after incubation for 4 h, HTRF fluorescence value (RLU) was read by a microplate reader, and p-ERK level inhibition ratio of the compound was calculated IR (%)=(RLU control-RLU compound)/(RLU control-RLU blank)×100%, compound concentration and corresponding cell p-ERK level inhibition ratio were fitted using Prism 8 four-parameter method, and IC50 value was calculated.

[4] = tested on: AsPC-1 cells (KRAS^G12D mutation); test: Cell proliferation inhibition assay (3D, CellTiter-Glo), AsPC-1; assay type: cell-based, human; settings: 3D cell model, 5 days
Source text: as §1, §2

[5] = target: KRAS^wt (wild type) protein binding to RBD region fragment of RAF1 protein (Homo sapiens (Human), UniProt P01116); test: KRAS-RAF1 binding assay (HTRF), KRAS wild type; settings: GST-RAF1-RBD, GTP
Method: as §3, §4

KRAS^G12D mutant protein binding to RBD region fragment of RAF1 protein, sequence (P01116-2 other isoform, or with tags, fused parts or gaps G12D): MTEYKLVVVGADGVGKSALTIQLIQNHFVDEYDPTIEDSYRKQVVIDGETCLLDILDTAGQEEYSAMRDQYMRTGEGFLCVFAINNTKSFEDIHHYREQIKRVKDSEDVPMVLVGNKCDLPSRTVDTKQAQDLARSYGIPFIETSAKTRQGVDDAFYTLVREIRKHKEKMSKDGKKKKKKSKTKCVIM
KRAS^wt (wild type) protein binding to RBD region fragment of RAF1 protein, sequence (P01116-2 other isoform, or with tags, fused parts or gaps): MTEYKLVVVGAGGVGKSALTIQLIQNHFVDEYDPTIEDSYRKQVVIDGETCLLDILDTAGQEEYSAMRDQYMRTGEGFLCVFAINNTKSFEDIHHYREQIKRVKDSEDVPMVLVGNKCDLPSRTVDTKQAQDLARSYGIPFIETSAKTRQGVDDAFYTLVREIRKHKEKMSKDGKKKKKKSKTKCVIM

Structure (SMILES)	pIC50 ([1]; Homo sapiens, AGS, 120 h)	pIC50 [2]	pIC50 ([3]; Homo sapiens, AGS, 3 h)	pIC50 ([4]; Homo sapiens, ASPC1, 120 h)	pIC50 [5]	pIC50 [1]	pIC50 [3]	pIC50 [4]
C#Cc1c(F)ccc2cc(O)cc(-c3ncc4c(N5C[C@H]6CC[C@@H](C5)N6)nc(OC[C@]56CCCN5CC(=C)C6)nc4c3F)c12 (single isomer, unassigned) [Example Z13]	7.89	7.27	7.96	7.17	6.99	–	–	–
C#Cc1cccc2cc(O)cc(-c3ncc4c(N5CC6CCC(C5)C6N)nc(OCC56CCCN5CCC6)nc4c3F)c12 (stereo not shown) [Example Z1]	–	6.59	–	–	5.58	–	–	–
C#Cc1cccc2cc(O)cc(-c3ncc4c(N5CC6CCC(C5)C6N)nc(OCC56CCCN5CCC6)nc4c3F)c12 (stereo not shown) [Example Z2]	–	6.73	–	–	6.10	–	–	–
C#Cc1c(F)ccc2cc(O)cc(-c3ncc4c(N5C[C@H]6CC[C@@H](C5)N6)nc(OCC56CCCN5CC(=C)C6)nc4c3F)c12 (stereo partly shown) [Example Z3]	–	7.79	–	–	7.19	8.52	8.68	7.80
C#Cc1cccc2cc(O)cc(-c3ncc4c(N5C[C@H]6C=C[C@@H](C5)N6)nc(OCC56CCCN5CCC6)nc4c3F)c12 [Example Z4, 4-(4-((1R,5S)-3,8-diazabicyclo[3.2.1]oct-6-en-3-yl)-8-fluoro-2-((tetrahydro-1H-pyrrolizin-7a(5H)-yl)methoxy)pyrido[4,3-d]pyrimidin-7-yl)-5-ethynylnaphthalen-2-ol]	6.44	7.69	7.33	–	6.41	–	–	–
C#Cc1cccc2cc(O)cc(-c3ncc4c(N5C[C@H]6CC[C@@H](C5)N6)nc(OCC56CCCN5CC(=CF)C6)nc4c3F)c12 (stereo partly drawn) [Example Z5, 4-(4-((1R,5S)-3,8-diazabicyclo[3.2.1]octan-3-yl)-8-fluoro-2-((2-(fluoromethylene)tetrahydro-1H-pyrrolizin-7a(5H)-yl)methoxy)pyrido[4,3-d]pyrimidin-7-yl)-5-ethynylnaphthalen-2-ol]	8.35	7.44	8.94	7.53	7.36	–	–	–
C#Cc1cccc2cccc(-c3ncc4c(N5C[C@H]6C=C[C@@H](C5)N6)nc(OCC56CCCN5CCC6)nc4c3F)c12 [Example Z6, 4-((1R,5S)-3,8-diazabicyclo[3.2.1]oct-6-en-3-yl)-7-(8-ethynylnaphthalen-1-yl)-8-fluoro-2-((tetrahydro-1H-pyrrolizin-7a(5H)-yl)methoxy)pyrido[4,3-d]pyrimidine]	6.09	7.29	6.37	–	< 5.00	–	–	–
C#Cc1cccc2cc(O)cc(-c3ncc4c(N5C[C@H]6C=C[C@@H](C5)N6)nc(OC[C@@]56CCCN5C[C@H](F)C6)nc4c3F)c12 [Example Z7, 4-(4-((1R,5S)-3,8-diazabicyclo[3.2.1]oct-6-en-3-yl)-8-fluoro-2-(((2R,7aS)-2-fluorotetrahydro-1H-pyrrolizin-7a(5H)-yl)methoxy)pyrido[4,3-d]pyrimidin-7-yl)-5-ethynylnaphthalen-2-ol]	7.49	7.14	7.92	6.36	5.99	–	–	–
C#Cc1c(F)ccc2cc(O)cc(-c3ccc4c(N5C[C@H]6CC[C@@H](C5)N6)nc(OCC56CCCN5CCC6)nc4c3F)c12 [Example Z9, 4-(4-((1R,5S)-3,8-diazabicyclo[3.2.1]octan-3-yl)-8-fluoro-2-((tetrahydro-1H-pyrrolizin-7a(5H)-yl)methoxy)quinazolin-7-yl)-5-ethynyl-6-fluoronaphthalen-2-ol]	6.84	7.10	7.62	6.52	6.58	–	–	–
C#Cc1cccc2cc(O)cc(-c3ncc4c(N5C[C@@H]6N[C@H](C5)[C@@H]5C[C@@H]56)nc(OCC56CCCN5CCC6)nc4c3F)c12 [Example Z10, 5-ethynyl-4-(8-fluoro-2-((tetrahydro-1H-pyrrolizin-7a(5H)-yl)methoxy)-4-((1R, 2S, 4R, 5S)-7,9-diazatricyclo[3.3.1.0^2,4]nonan-7-yl)pyrido[4,3-d]pyrimidin-7-yl)naphthalen-2-ol]	–	7.20	6.67	–	6.93	–	–	–
C#Cc1c(F)ccc2cc(O)cc(-c3ncc4c(N5C[C@H]6CC[C@@H](C5)N6)nc(OCC56CC(=C)CN5CC(=C(F)F)C6)nc4c3F)c12 (stereo partly shown) [Example Z215]	–	–	–	–	–	8.29	8.92	7.31
C#Cc1c(Cl)ccc2cc(O)cc(-c3ncc4c(N5C[C@H]6CC[C@@H](C5)N6)nc(OCC56CC(=C)CN5CC(=C)C6)nc4c3F)c12 [Example Z216, 4-(4-((1R,5S)-3,8-diazabicyclo[3.2.1]octan-3-yl)-2-((2,6-dimethylenetetrahydro-1H-pyrrolizin-7a(5H)-yl)methoxy)-8-fluoropyrido[4,3-d]pyrimidin-7-yl)-6-chloro-5-ethynylnaphthalen-2-ol]	8.50	–	8.91	7.36	–	–	–	–
